Drawing on a melting point compilation (Tetko et al.; mined from patent text by program, amines drawn as free bases though some values may be those of a salt), this text covers melting point for 34 compounds.

Each structure is given as a SMILES string.

As to `CCOC(=O)C(=CNc1cc(OCc2ccccc2)c(OCc2ccccc2)cn1)C(=O)OCC`, the melting point (in general, the temperature of the solid-liquid transition) was determined as 117 °C.
For the compound `Cc1cc(-n2ccnc2)c2cccc(OCc3c(Cl)ccc(S(=O)(=O)N4CCCC4C(=O)NCC4CCN(C(=O)CC(=O)OC(C)(C)C)CC4)c3Cl)c2n1` (centres undefined), the melting point worked out at 101 °C.
The value for `O=c1oc(-c2c(F)cccc2Cl)nn1-c1ccccc1C(F)(F)F` was 109 to 110 °C; that for `Cc1cc(C)nc(NC(=O)Cc2ccsc2Br)c1` was 72 °C; that for `O=C(NCCCCCCNC(=O)c1ccc(O)cc1)c1ccc(O)cc1` was 220 to 222 °C.
The value for `COC(=O)CCCCCCCCOC1OC(CO)C(O)C(OC2OC(CO)C(O)C(O)C2O)C1NC(C)=O` (centres undefined) was 208 to 210 °C; that for `CCc1[nH]cnc1-c1cc(C(C)(C)C)c(O)c(C(C)(C)C)c1` was 200 to 201 °C; that for `CC(COc1ccc(-n2nc3c(cc2=O)CCc2ccc(F)cc2-3)cc1)N(C)C` (centres undefined) was 178 to 180 °C.
The value for `CSC(=NCc1cccc2ccccc12)NCC1CCN(S(=O)(=O)c2cccc3ccccc23)CC1` was 111 to 113 °C; that for `C=CCN1C(=O)COc2cc(F)c(N)cc21` was 171 to 172 °C.
The compound `CCOc1cc2cc3c(Nc4cc(OC)c(Cl)cc4C)c(C#N)cnc3cc2cc1OCCN(CC(N)=O)CC(N)=O` showed a melting point of 168 to 170 °C.
The value for `COC(=O)CCc1cc2cc(Cl)ccc2n1S(=O)(=O)c1ccc(Cl)cc1` was 89 to 92 °C; that for `COC=C(C(=O)OC)c1ccccc1Oc1ncnc(F)c1Cl` was 102 °C; that for `COCC1CN(c2ccc(OCC3CCCC3=O)cc2)C(=O)O1` (centres undefined) was 70 °C.
Regarding `CNCCNC(=NCCSCc1[nH]cnc1C)NC#N`, the melting point was 146 to 148 °C.
For the compound `CCN(CC)CCOc1ccc(Oc2ccc(S(C)(=O)=O)cc2)cc1`, the melting point was 92.5 to 94 °C.
`NC(=O)Cc1ccc(-c2cnc3[nH]c(=O)n(CC4CCCCC4)c3n2)cc1` displayed a melting point of 272 to 274 °C.
Compound `CC(C)C[C@@H](C(=O)O)N(C)C(=O)OCc1ccccc1` displayed a melting point of 69 to 71 °C.
In turn, `CCCc1c(C(=O)C2CC2)c2ccc(C(N)=O)cc2n1Cc1cc2c(cc1Cl)OCO2` showed a melting point of 162 to 164 °C.
In the case of `CC(C)(C)c1ccc(C2C=C(c3ccc(C#C[Si](C)(C)C)cc3)NN2c2ccccc2)cc1` (centres undefined), the melting point was in the range of 160 to 162 °C.
Under `Cc1c2c(c(C)c3c1NCC3)OC(C)(C)C2` stands 105 to 107 °C; under `CN(C=O)C1CCC(=O)c2ccccc21` (single isomer, unassigned; (+)), 92 to 93 °C.
Under `CS(=O)(=O)c1ccc(-c2cc(=O)n(CC(F)(F)F)nc2-c2ccc(F)cc2)cc1` stands 177 to 179 °C.
The value for `CCc1c2c(nc3cc(F)c(OC)cc13)-c1cc3c(c(=O)n1C2)COC(=O)CC3(O)CC` (centres undefined) was above 275 °C; that for `Cc1c(O)cc2c(c1C)NCC2` was 164 to 167 °C.
The compound `CC1CC(c2ccc(CCCCN)cc2)=NNC1=O` (centres undefined) came in with a melting point of 118 to 120 °C.
The value for `CON(Cc1ccc(NC(C)=O)cc1)C(=O)C1=C(O)C(=O)N(C)C1` was 110 °C; that for `O=C(O)CNC(=O)CSC(=O)c1ccccc1` was 140 to 142 °C.
Under `CC(=O)S[C@H]1NC(=O)[C@H]1NC(=O)Cc1ccccc1` stands 110 to 111 °C.
Under `COc1ccc2c(c1)CCC1C2CCC2(C)C1CCC2N(C=O)CCN(C)C` (centres undefined) stands 98 to 100 °C; under `N#Cc1c(OCC(F)(F)F)nc(CCO)nc1N1CCc2ccccc2CC1`, 114 to 116 °C; under `O=C1C(c2ccccc2)=C(c2ccccc2)C(=O)N1c1ccccc1`, 173 to 174 °C.
Compound `C=Cc1ccc(-c2ccc3c4ccc5c6c(ccc(c7cccc2c73)c64)C(=O)N(c2c(C(C)C)cccc2C(C)C)C5=O)cc1` gave a melting point above 300 °C.
`Clc1cc2nc(Cl)c(I)n2cc1Cl` showed a melting point of 215 to 216 °C.
